Test results from patent US20260256724A1, “T[…] FOR […]” (Asklepion Pharmaceuticals LLC, priority 2022, published 2026).
“Also recorded” adds a separate entry of the source.

Assays:
nitric oxide production = test: Nitric oxide production in a murine system, measured via NO metabolites; settings: increasing citrulline concentration
Text: It is important to recall that citrulline is regenerated in the last step of NO production, making negative feedback by citrulline a reasonable hypothesis. Alternatively, an acute increase in NO production, which is known to have a negative feedback effect on NOS (Viziri and Wang, 1999) could explain the results. […] The negative clinical effects in the >95% group for the Phase 3 trial may thus result from one or more negative feedback mechanisms. The negative feedback could result from either the effect of NO or the citrulline itself creating feedback on the system.

[1] = tested on: pediatric patients exposed to cardiopulmonary bypass in congenital heart defect surgery; test: Phase 3 double-blind, placebo-controlled trial of citrulline in cardiopulmonary bypass surgery, re-analysed by percent of intraoperative Dose 2 received; assay type: in vivo
Procedure: A Phase 3 study was carried out as a double-blind, placebo-controlled trial to confirm the effect. The Phase 3 trial was performed in the US, EU, and Israel, using a modified intent-to-treat population (or modified full analysis set) of 190 patients, of whom 138 were in the US and 52 were ex-US.
The starting point for the analysis was consideration of the complete modified full analysis set, consisting of all enrolled patients who completed the protocol. […] The Modified Full Analysis Set consists of all enrolled patients who completed the protocol.
In the study protocol and accompanying pharmacy manual for both studies, citrulline dosing occurs in four distinct phases. Dose 1 is a loading dose added to the cardiopulmonary […] bypass fluids on a mg/kg basis. Dose 3 is a bolus administered following surgery on a mg/kg basis, and Dose 4 is an IV drip at 9 mg/kg/hour. No variation in administration of these doses was introduced during the course of the phase 3 study.
In contrast, Dose 2, the intraoperative dosing designed to compensate for ultrafiltration, was subject to some variation. Ultrafiltration during cardiac surgery is not standardized, and therefore, it was not possible to completely standardize this dose. The perfusionist estimates the volume of ultrafiltrate removed, as well as the volume of cardioplegia solution. The perfusionist then calculates according to the study pharmacy manual instructions the amount of citrulline to be administered to compensate for the ultrafiltered citrulline in order to maintain a specified therapeutic level.
Although the therapeutic target level was set at 100 micromolar during the phase 2 study, because of the potential for variation in Dose 2 (which is given intraoperatively to compensate for the routine ongoing ultrafiltration of circulating bypass fluids to reduce the circulating concentrations of inflammatory mediators) and the concern that some patients might inadvertently receive sub-therapeutic intraoperative levels, the target level for Dose 2 in the phase 3 study was increased to 200 micromolar. This was considered to be safe since no adverse effects of citrulline had been reported, even at substantially higher levels in medical use. In order to examine whether variation in Dose 2 could explain the results obtained, the actual dose received, shown as the percent of the targeted dose, was plotted against the composite variable results. Since placebos received no citrulline, they were plotted at the 0% level.
For the Phase 3 trial, a target intraoperative dose of […] (Dose 2) was chosen to preclude an inadvertent drop below an efficacious level in any patient. The potential for variation in intraoperative dosing arises from the lack of standardization of cardiopulmonary bypass ultrafiltration techniques. […] Nonetheless, expansion of the study to a greater number of sites raised the concern that some sites might inadvertently underdose Dose 2. Given the known innocuous nature of L-citrulline, an endogenous amino acid that is given medicinally in doses an order of magnitude higher than this to urea cycle disorder patients, as well as the well-tolerated high endogenous concentrations of citrulline in hypercitrullinemia patients, there was no concern for erring on the high side of the presumed effective dose.
To investigate the data in more detail, patients were stratified according to the dose level actually administered intraoperatively. The values obtained for duration of mechanical ventilation (MV), length of inotrope therapy (InoTx) and the composite primary (created for the SAP, based on the longer of the MV or InoTx) in any patient were segmented into groups based on the percent of the 200 μmol target dose actually received by the patient, by comparing patients who had received <65%, <75%, <85%, <95%, and >95% of the calculated target dose. […] Analysis was performed via two-sided Wilcoxon Rank Sum. […]

[2] = tested on: pediatric patients undergoing surgical procedures involving cardiopulmonary bypass; settings: 22 patients (11 Tx, 11 PL); Dose 2 100 μmol; cited from earlier work

## NC(=O)NCCC[C@H](N)C(=O)O [citrulline, L-citrulline]
Nitric oxide production
  production of NO as measured via NO metabolites: increasing levels of citrulline initially facilitate nitric oxide production; however, continued increase in citrulline concentration results in diminished production of NO
[1]; <65% of target Dose 2, p = 0.0040
  Composite (longer of MV or InoTx), median: 1267.0 min
[1]; <65% of target Dose 2, p = 0.0236
  PICU/NICU stay, median: 2 days
[1]; <65% of target Dose 2, p = 0.0953
  Hospitalization, median: 4 days
[1]; <75% of target Dose 2
  Reduction of median Composite vs placebo: 42%
  Reduction of median Inotrope vs placebo: 26%
  Reduction of median Mechanical Ventilation vs placebo: 70%
[1]; <75% of target Dose 2, p = 0.0025
  Composite (longer of MV or InoTx), median: 1267.0 min
[1]; <75% of target Dose 2, p = 0.0129
  Vent (duration of mechanical ventilation), median: 170.0 min
[1]; <75% of target Dose 2, p = 0.0295
  PICU/NICU stay, median: 2 days
[1]; <75% of target Dose 2, p = 0.1905
  Hospitalization, median: 5 days
[1]; <75% of the calculated Dose 2
  overall length of hospital stay vs placebo: not significantly different
[1]; <85% of target Dose 2, p = 0.0029
  Composite (longer of MV or InoTx), median: 1283.5 min
[1]; <85% of target Dose 2, p = 0.0332
  PICU/NICU stay, median: 2 days
[1]; <85% of target Dose 2, p = 0.1369
  Hospitalization, median: 5 days
[1]; <95% of target Dose 2, p = 0.0033
  Composite (longer of MV or InoTx), median: 1357.0 min
[1]; <95% of target Dose 2, p = 0.0242
  Inotrope (duration of inotrope therapy), median: 1300.0 min
[1]; <95% of target Dose 2, p = 0.1232
  PICU/NICU stay, median: 2 days
[1]; <95% of target Dose 2, p = 0.3169
  Hospitalization, median: 5 days
[1]; >95% of target Dose 2, p = 0.0006
  Hospitalization, median: 7 days
[1]; >95% of target Dose 2, p = 0.0034
  PICU/NICU stay, median: 4 days
[1]; >95% of target Dose 2, p = 0.0114
  Composite (longer of MV or InoTx), median: 3447.0 min
[1]; >95% of the targeted dose (>190 μmol)
  composite variable, duration of mechanical ventilation and duration of inotrope therapy vs placebo: worse results when treated with citrulline than placebo patients
[1]; All Patients, p = 0.3398 vs placebo (placebo median 2204.0)
  Composite (longer of MV or InoTx), median: 1640.0 min
[1]; All Patients, p = 0.3681 vs placebo (placebo median 5)
  Hospitalization, median: 5 days
[1]; All Patients, p = 0.8484 vs placebo (placebo median 3)
  PICU/NICU stay, median: 3 days
[1]; Dose 2 at levels <95% of target
  reduction in the length of stay in the PICU or NICU following surgery: statistically significant reduction of one day
[1]; Dose 2 at levels <95% of target, two-sided Wilcoxon Rank Sum
  composite variable, duration of mechanical ventilation and duration of inotrope therapy vs placebo: Statistically significant reduction of all variables; also recorded: highly significant reductions
[1]; complete modified full analysis set
  composite endpoint, treated vs placebo: showed no difference
[2]
  primary parameters (duration of MV & InoTx) vs placebo: near-significance
